Test results from patent publication US20110136145A1, “METHODS FOR PROMOTING FUSION AND REPROGRAMMING OF SOMATIC CELLS” (THE JOHNS HOPKINS UNIVERSITY, priority 2008, published 2011).
Entries after “also recorded” stand apart in the source; their conditions may differ.

Biological target: T1, Jhdm2a (Homo sapiens, UniProt Q9Y4C1)
T1 construct: expressed in transfected cells; host or cells: 293T cells
T1 sequence (Q9Y4C1 1-1321): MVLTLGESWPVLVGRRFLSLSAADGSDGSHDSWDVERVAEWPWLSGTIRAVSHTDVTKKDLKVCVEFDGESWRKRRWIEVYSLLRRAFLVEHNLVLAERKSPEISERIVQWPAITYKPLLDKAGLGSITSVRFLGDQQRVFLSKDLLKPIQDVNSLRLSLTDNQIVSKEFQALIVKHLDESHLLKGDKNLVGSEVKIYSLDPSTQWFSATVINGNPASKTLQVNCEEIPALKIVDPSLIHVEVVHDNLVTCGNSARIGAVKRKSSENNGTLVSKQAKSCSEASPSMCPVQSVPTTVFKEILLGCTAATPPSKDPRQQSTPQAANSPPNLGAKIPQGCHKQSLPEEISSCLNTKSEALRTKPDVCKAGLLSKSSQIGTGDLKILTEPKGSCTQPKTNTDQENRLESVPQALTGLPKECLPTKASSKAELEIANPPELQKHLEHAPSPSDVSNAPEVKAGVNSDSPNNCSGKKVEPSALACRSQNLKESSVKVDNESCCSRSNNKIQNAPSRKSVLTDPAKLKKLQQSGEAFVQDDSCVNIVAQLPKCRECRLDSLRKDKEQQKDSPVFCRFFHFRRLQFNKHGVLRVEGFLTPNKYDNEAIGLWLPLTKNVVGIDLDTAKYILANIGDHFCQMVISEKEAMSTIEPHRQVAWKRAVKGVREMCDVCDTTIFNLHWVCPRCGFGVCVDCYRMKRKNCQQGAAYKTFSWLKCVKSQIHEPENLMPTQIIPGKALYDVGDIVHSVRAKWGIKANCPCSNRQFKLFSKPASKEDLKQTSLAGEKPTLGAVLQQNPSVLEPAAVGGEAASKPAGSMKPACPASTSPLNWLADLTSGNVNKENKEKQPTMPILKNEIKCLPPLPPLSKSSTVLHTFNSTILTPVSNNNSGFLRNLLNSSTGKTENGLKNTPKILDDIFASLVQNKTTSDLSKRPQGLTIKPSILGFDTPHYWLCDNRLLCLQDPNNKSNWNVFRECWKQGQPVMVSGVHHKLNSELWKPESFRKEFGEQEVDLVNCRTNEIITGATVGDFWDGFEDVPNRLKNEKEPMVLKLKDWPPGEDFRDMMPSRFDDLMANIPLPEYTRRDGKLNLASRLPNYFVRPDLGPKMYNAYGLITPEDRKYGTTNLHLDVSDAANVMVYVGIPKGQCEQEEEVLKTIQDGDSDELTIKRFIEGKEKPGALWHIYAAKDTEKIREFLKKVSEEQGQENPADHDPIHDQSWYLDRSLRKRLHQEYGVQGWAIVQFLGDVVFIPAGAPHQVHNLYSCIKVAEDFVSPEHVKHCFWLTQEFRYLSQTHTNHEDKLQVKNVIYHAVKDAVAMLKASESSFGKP
Test: Immunolabeling assay of Jhdm2a-induced H3K9 demethylation in 293T cells
Format: cell-based
Conditions: 10 μM; 293T cells transfected with Jhdm2a-EGFP; vs DMSO
From the text: (A) Inhibition of Jhdm2a induced histone demethylation by DMOG. Blocking effects of DMOG on Jhdm2a were examined in 293T cells transfected with a plasmid expressing Jhdm2a-EGFP fusion protein. In control cells treated with DMSO, histone 3 lysine 9 dimethylation (H3K9diM) immunostaining signal was lost in Jhdm2a-GFP transfected cells (arrows). […] DAPI labels all cell nuclei. Scale bar: 20 μm. (B-D) show DMOG attenuates ESC-induced reactivation of Oct4 expression from adult NSCs. […] Representative plots from multiple experiments are shown (B). Reprogramming frequencies from multiple experiments were quantified (C) for fusion population with the 48-hour treatment of DMSO or DMOG. Data represent mean±SEM. (n=3; ** P<0.01, Student's t-test). Shown in (D) is the cumulative distribution plot of DsRed+ population with graded GFP fluorescence intensities for comparison of the reprogramming efficacy in the presence of DMSO or DMOG (n=3 experiments; * P<0.01, Kolmogorov-Smirnov test).
To confirm the blocking effects of DMOG on histone demethylases, an immuno labeling assay previously developed for JHDM2A was used. Overexpression of Jhdm2a in heterologous cell lines led to dramatic loss of H3K9 dimethylation, which was blocked by the DMOG treatment (10 μM FIG. 6A). […]

COC(=O)CNC(=O)C(=O)OC [DMOG, dimethyloxalylglycine]
Jhdm2a-induced loss of H3K9 dimethylation: blocked; also recorded: H3K9 dimethylation signals are present in all cells
